IC50 data for two molecules are collected here from patent publication US8969383B2, “Picolinamide derivatives as TTX-S blockers” (RaQualia Pharma Inc., priority 2009, dated 2015).

The target in assay [1] is T1, human Nav1.3 (Homo sapiens, UniProt Q9NY46).
T1 construct: expressed in transfected cells; host or cells: HEK293
The assay can be described thus: FRET assay, human Nav1.3 channels expressed in HEK293 cells. The settings on record: HEK293 cells expressing human NaV1.3, veratridine-opened channels. Type of assay: cell-based. As for the experimental part: (§1) The ability of the picolinamide derivatives of the formula (I) to inhibit the NaV1.3,Nav1.7 and Nav1.5 channels was measured by FRET assay and electrophysiology assay described below.
(§2) This screen is used to determine the effects of compounds on human Nav1.3, human Nav1.7, and human Nav1.5 channels, utilising the cell imaging technology by Hamamatsu Photonics's Functional Drug Screening System (FDSS). This experiment is based on FRET (Fluorescence Resonance Energy Transfer) and uses two fluorescent molecules. The first molecule, Oxonol (DiSBAC2(3)), is a highly fluorescent, negatively charged, hydrophobic ion that “senses” the trans-membrane electrical potential. In response to changes in membrane potential, it can rapidly redistribute between two binding sites on opposite sides of the plasma membrane. The voltage dependent redistribution is transduced into a ratiometric fluorescent readout via a second fluorescent molecule (Coumarin (CC2-DMPE)) that binds specifically to one face of the plasma membrane and functions as a FRET partner to the mobile voltage-sensing ion. To enable the assay to work, the channels have to be pharmacologically held in the open state. This is achieved by treating the cells with veratridine.
Each HEK293 cells expressing human NaV1.3 channels and HEK293 cells expressing human NaV1.5 channels were grown in T225 flasks, in a 5% CO2 humidified incubator to about 80% confluence. Media composition consisted of Dulbecco's Modified Eagle Medium (high glucose), 10% fetal calf serum (FCS), 100 units/ml Penicillin, 100 microgram/ml Streptomycin and 500 microgram/ml Geneticine.
(§3) • Seed each cell lines (1.5×10^4 cells/well) into poly-D-lysine coated 384-well plates prior to experimentation. • Incubate at 37° C. in 5% CO2 for 24 hours. • Wash each well with buffer #1 (140 mM NaCl, 4.5 mM KCl, 10 mM D-Glucose, 2 mM CaCl2, 1 mM MgCl2, 10 mM HEPES, pH 7.4 adjusted with NaOH) twice using plate washer. • Add 1st loading solution containing 5 μM CC2-DMPE and 0.02% Pluronic F-127 in buffer #1. • Incubate the plate at room temperature in dark for 0.5 hours. • Wash each well with buffer #2 (160 mM Choline, 10 mM D-Glucose, 0.1 mM CaCl2, 1 mM MgCl2, 10 mM HEPES, pH 7.4 adjusted with KOH) twice using plate washer. • Add 2nd loading solution containing 15 μM DiSBAC2(3), 0.5 mM VABSC-1, 10 μM veratridine and 0.004% Pluronic F-127 in buffer #2. • Add compound solutions into the assay plate and leave the plate for 30 minutes under the dark at room temperature. • Measure by FDSS.
(§4) The data was analyzed and reported as normalized ratios of intensities measured in the 465 nm and 575 nm channels. The process of calculating these ratios was performed as follows:
(§5) “FI465B”=the mean of fluorescence intensity as baseline (before Na+ ligand addition) at 465 nm
(§6) “FI575B”=the mean of fluorescence intensity as baseline (before Na+ ligand addition) at 575 nm
(§7) “FI465Max”=maximum fluorescence intensity at 465 nm after Na+ stimulation
(§8) “FI575 Min”=minimum fluorescence intensity at 575 nm after Na+ stimulation
(§9) This analysis was performed using a computerized specific program designed for FDSS generated data. Fluorescence ratio values were plotted using XLfit to determine an IC50 value for each compound.

The target of assay [2] is T2, human Nav1.7 (Homo sapiens, UniProt Q15858).
T2 construct: expressed in transfected cells; host or cells: CHO
The assay can be described thus: FRET assay, human Nav1.7 channels expressed in CHO cells. Type of assay: cell-based. The note with it: CHO cells expressing human NaV1.7, veratridine-opened channels. The protocol:
as §1, §2
CHO cells expressing human NaV1.7 channels were grown in T225 flasks, in a 5% CO 2 humidified incubator to about 80% confluence. Media composition consisted of HAM/F12 with Glutamax 1.10% fetal calf serum (FCS), 100 units/ml Penicillin and 100 microgram/ml Hygromycin.
as §3, §4, §5, §6, §7, §8, §9

Molecules are shown by their SMILES. pIC50: −log10 of the molar value. Some results are limits rather than exact numbers.

T1 sequence (Q9NY46 whole entry): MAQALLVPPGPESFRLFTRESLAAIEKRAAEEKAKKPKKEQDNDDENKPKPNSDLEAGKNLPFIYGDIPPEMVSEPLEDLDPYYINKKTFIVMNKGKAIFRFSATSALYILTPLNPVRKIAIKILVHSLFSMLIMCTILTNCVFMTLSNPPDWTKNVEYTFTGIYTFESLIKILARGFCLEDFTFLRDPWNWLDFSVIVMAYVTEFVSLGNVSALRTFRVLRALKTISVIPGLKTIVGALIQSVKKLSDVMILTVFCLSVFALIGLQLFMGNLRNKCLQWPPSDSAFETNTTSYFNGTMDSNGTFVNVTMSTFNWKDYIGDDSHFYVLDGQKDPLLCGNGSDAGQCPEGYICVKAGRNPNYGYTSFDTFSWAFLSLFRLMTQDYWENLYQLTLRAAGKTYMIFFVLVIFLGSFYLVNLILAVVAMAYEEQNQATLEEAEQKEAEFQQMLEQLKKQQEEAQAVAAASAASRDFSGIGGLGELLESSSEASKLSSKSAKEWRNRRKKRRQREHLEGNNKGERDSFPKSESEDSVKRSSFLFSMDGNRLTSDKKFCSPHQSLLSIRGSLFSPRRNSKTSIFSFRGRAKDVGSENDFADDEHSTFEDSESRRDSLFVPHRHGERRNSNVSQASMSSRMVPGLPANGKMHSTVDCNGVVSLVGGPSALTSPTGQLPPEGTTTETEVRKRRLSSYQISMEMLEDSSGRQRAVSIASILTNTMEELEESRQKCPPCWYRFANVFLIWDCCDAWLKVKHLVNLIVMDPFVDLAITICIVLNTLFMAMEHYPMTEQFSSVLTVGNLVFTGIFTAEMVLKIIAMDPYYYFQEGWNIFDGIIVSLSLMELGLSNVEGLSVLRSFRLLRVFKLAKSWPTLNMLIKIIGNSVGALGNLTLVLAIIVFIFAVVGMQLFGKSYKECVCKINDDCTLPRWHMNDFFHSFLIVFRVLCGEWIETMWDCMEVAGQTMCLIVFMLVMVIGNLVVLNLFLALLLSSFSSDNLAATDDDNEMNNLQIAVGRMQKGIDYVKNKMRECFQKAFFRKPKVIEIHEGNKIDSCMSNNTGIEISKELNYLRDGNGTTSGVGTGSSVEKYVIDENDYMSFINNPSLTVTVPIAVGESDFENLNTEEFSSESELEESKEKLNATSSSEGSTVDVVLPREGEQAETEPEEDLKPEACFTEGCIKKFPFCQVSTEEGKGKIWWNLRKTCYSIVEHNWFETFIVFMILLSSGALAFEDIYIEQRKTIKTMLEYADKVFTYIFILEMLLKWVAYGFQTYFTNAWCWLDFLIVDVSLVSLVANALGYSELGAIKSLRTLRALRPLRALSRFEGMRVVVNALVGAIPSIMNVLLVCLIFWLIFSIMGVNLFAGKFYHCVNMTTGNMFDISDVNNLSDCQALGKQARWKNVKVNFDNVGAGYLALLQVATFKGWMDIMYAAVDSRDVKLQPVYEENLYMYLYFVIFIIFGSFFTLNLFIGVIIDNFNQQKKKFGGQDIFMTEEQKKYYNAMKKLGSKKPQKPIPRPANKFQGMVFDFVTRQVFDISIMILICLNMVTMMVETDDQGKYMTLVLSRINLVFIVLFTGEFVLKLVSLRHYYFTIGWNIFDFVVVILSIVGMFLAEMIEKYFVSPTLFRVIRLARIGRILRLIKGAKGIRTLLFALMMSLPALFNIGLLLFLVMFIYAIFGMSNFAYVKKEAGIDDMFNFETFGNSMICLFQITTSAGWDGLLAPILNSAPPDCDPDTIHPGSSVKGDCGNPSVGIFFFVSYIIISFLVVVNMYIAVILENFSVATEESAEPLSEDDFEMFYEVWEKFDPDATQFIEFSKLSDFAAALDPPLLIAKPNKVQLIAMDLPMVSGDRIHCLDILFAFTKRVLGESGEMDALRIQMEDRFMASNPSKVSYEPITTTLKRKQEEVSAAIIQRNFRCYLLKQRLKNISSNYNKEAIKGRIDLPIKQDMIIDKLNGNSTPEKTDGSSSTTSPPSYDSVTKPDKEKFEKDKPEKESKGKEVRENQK
T2 sequence (Q15858 whole entry): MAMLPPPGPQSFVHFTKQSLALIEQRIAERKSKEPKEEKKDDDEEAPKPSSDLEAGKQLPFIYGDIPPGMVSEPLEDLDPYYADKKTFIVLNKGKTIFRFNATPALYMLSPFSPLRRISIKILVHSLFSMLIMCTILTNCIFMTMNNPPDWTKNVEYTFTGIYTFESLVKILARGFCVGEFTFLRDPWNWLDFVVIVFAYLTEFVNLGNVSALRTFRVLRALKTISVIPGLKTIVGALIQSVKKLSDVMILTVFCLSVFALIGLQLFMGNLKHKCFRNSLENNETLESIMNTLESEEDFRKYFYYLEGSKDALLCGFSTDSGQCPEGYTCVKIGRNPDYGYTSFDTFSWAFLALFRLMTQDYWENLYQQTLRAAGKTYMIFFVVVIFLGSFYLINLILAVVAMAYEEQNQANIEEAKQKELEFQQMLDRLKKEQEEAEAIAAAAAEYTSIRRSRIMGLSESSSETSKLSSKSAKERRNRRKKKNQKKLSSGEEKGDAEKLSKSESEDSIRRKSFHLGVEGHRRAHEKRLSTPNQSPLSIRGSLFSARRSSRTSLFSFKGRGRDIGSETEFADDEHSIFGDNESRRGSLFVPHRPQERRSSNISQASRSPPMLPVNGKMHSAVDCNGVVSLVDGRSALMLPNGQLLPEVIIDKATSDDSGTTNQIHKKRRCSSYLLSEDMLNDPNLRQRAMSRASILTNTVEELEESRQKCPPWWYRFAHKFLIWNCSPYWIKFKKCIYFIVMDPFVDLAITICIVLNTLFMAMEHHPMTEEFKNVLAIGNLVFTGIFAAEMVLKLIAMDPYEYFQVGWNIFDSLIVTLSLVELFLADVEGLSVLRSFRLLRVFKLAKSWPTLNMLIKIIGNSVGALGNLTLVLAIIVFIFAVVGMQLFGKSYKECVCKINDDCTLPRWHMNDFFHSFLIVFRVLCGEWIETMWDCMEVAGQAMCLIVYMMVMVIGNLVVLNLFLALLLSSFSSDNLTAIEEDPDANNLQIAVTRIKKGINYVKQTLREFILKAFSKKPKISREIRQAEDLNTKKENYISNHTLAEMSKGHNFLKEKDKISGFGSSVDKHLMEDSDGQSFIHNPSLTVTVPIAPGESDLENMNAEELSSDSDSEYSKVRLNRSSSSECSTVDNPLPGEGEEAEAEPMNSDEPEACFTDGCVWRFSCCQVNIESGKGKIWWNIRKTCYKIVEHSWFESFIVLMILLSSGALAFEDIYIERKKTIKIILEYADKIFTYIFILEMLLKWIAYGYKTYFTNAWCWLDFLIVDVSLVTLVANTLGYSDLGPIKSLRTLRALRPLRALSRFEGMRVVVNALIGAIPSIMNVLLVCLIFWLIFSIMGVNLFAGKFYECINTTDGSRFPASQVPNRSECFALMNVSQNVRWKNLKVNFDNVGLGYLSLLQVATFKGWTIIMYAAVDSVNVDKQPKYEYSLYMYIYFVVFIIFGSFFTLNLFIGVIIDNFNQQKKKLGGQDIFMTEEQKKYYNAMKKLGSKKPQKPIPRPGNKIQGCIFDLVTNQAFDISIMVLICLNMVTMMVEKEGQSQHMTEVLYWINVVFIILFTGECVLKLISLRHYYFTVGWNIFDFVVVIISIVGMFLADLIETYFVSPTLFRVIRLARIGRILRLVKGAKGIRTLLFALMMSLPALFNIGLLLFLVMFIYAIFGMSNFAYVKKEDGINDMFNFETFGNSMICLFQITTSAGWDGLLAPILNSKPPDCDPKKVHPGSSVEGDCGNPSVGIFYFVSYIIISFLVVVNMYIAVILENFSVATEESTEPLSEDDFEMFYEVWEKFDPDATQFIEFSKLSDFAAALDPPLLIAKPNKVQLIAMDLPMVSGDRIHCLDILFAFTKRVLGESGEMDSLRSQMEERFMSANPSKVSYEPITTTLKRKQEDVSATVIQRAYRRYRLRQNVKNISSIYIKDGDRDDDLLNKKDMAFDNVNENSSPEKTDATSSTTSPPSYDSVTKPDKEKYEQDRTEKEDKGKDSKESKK

Usually pIC50 stands for −log10 of the IC50, conventionally taken in molar units. Higher therefore signals a low IC50. For the molecule `NC(=O)c1ncc(Cl)cc1OC[C@H]1CCCN1C(=O)[C@H]1CC[C@@H](C(F)(F)F)CC1` [Example 29, 5-chloro-3-(((R)-1-(cis-4-(trifluoromethyl)cyclohexanecarbonyl)pyrrolidin-2-yl)methoxy)picolinamide], the pIC50 in assay [1] and in assay [2] was ≥ 6.30 in each case.
Consider `O=C(Nc1ccon1)c1ncccc1OC[C@H]1CCCN1C(=O)CC1CCC(F)(F)CC1` [Example 66, (R)-3-((1-(2-(4,4-difluorocyclohexyl)acetyl)pyrrolidin-2-yl)methoxy)-N-(isoxazol-3-yl)picolinamide], for which the pIC50 in assay [1] and in assay [2] was ≥ 6.30 in each case.
